In ChEMBL document CHEMBL1201862, “PubChem BioAssay data set” (2004):
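Protocol summary: plate cells (96-well), add compound at 5 concentrations, incubate 48 h, interpolate endpoints linearly. GI50 is the concentration that inhibits growth by half.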 Calls of active or inactive are those of the source. Rule as the data show it: active = GI50 up to about 1.1 µM and inactive = higher.

What was measured:
Experiment in all cases: DTP human tumour cell line panel, 48 h
A549 = test system: A549
ACHN = test system: ACHN
COLO 205 = test system: COLO 205
DU-145 = test system: DU-145
HCC 2998 = test system: HCC 2998
HCT-116 = test system: HCT-116
HT-29 = test system: HT-29
IGROV-1 = test system: IGROV-1
KM12 = test system: KM12
M14 = test system: M14
MCF7 = test system: MCF7
NCI-H522 = test system: NCI-H522
OVCAR-5 = test system: OVCAR-5
SK-MEL-5 = test system: SK-MEL-5
SNB-19 = test system: SNB-19
SNB-75 = test system: SNB-75
SR = test system: SR
UACC-257 = test system: UACC-257
UACC-62 = test system: UACC-62
MDA-N = test system: MDA-N

Row | Compound | GI50 (A549) | GI50 (ACHN) | GI50 (COLO 205) | GI50 (DU-145) | GI50 (HCC 2998) | GI50 (HCT-116) | GI50 (HT-29) | GI50 (IGROV-1) | GI50 (KM12) | GI50 (M14) | GI50 (MCF7) | GI50 (NCI-H522) | GI50 (OVCAR-5) | GI50 (SK-MEL-5) | GI50 (SNB-19) | GI50 (SNB-75) | GI50 (SR) | GI50 (UACC-257) | GI50 (UACC-62) | GI50 (MDA-N)
1 | CCOC(=O)/C=C\[C@H]1OC(C)(C)O[C@H]1[C@H](O)[C@H]1COC(C)(C)O1 | > 100 µM (inactive) | 16.3 µM (inactive) | 15.8 µM (inactive) | > 100 µM (inactive) | 11.3 µM (inactive) | 19.7 µM (inactive) | 20.7 µM (inactive) | 19.5 µM (inactive) | 77.3 µM (inactive) | 17.8 µM (inactive) | 20.8 µM (inactive) | 13.8 µM (inactive) | 17.1 µM (inactive) | 18.2 µM (inactive) | > 100 µM (inactive) | 2.57 µM (inactive) | 17.1 µM (inactive) | 22.6 µM (inactive) | 23.7 µM (inactive) | –
2 | O=C(/C=C\c1ccc([N+](=O)[O-])cc1)c1ccccc(=O)c1O | 0.51 µM (active) | 1.01 µM (active) | 0.397 µM (active) | 2.11 µM (inactive) | 1.29 µM (inactive) | 0.659 µM (active) | 1.04 µM (active) | 1.14 µM (inactive) | 1.04 µM (active) | 1.29 µM (inactive) | 0.277 µM (active) | 1.39 µM (inactive) | 2.55 µM (inactive) | 0.558 µM (active) | 4.65 µM (inactive) | 1.29 µM (inactive) | – | 1.77 µM (inactive) | 1.14 µM (inactive) | 2.37 µM (inactive)
3 | CC(C)(C)CNCCO | > 100 µM (inactive) | > 100 µM (inactive) | > 100 µM (inactive) | > 100 µM (inactive) | > 100 µM (inactive) | > 100 µM (inactive) | > 100 µM (inactive) | > 100 µM (inactive) | > 100 µM (inactive) | > 100 µM (inactive) | > 100 µM (inactive) | > 100 µM (inactive) | > 100 µM (inactive) | > 100 µM (inactive) | > 100 µM (inactive) | > 100 µM (inactive) | – | > 100 µM (inactive) | > 100 µM (inactive) | > 100 µM (inactive)
